Assay results published in ChEMBL document CHEMBL4382234, “Fluoroquinolone-isatin hybrids and their biological activities” (Eur J Med Chem, 2019).
Converted amounts (≈) assume the structure as drawn.

test system: A549; assay: Anticancer activity against human A549 cells after 48 hrs by MTT assay; type: functional, cell-based; settings: A549, 48 h

Row | Compound | IC50 [µg/mL]
1 | COc1cc(Cc2cnc(/N=C3\C(=O)N(CN4C(C)CN(c5c(F)c(N)c6c(=O)c(C(=O)O)cn(C7CC7)c6c5F)CC4C)c4ccccc43)nc2N)cc(OC)c1OC (stereo not given) | 18.3 to 50 (≈ 22.2 to 60.7 µM)
2 | COc1ncnc(NS(=O)(=O)c2ccc(/N=C3\C(=O)N(CN4C(C)CN(c5c(F)c(N)c6c(=O)c(C(=O)O)cn(C7CC7)c6c5F)CC4C)c4ccccc43)cc2)c1OC (stereo not given) | 18.3 to 33.6 (≈ 21.7 to 39.8 µM)
3 | CC1CN(c2c(F)c(N)c3c(=O)c(C(=O)O)cn(C4CC4)c3c2F)CC(C)N1CN1C(=O)C(=O)c2ccccc21 (stereo not given) | 18.3 to 50 (≈ 33.2 to 90.7 µM)
4 | Cc1cc(C)nc(NS(=O)(=O)c2ccc(/N=C3\C(=O)N(CN4C(C)CN(c5c(F)c(N)c6c(=O)c(C(=O)O)cn(C7CC7)c6c5F)CC4C)c4ccccc43)cc2)n1 (stereo not given) | 18.3 to 50 (≈ 22.6 to 61.6 µM)
5 | CC1CN(c2c(F)c(N)c3c(=O)c(C(=O)O)cn(C4CC4)c3c2F)CC(C)N1CN1C(=O)/C(=N\c2ccc(S(=O)(=O)Nc3ncccn3)cc2)c2ccccc21 (stereo not given) | 18.3 to 50 (≈ 23.4 to 63.8 µM)

test system: Mycobacterium tuberculosis; assay: Antimycobacterial activity against Mycobacterium tuberculosis H37Rv after 3 to 7 days by rapid direct susceptibility test; type: functional; settings: not given

Row | Compound | MIC [µg/mL]
6 | CO/N=C1/C(=O)N(CCn2cc(CN3CCC[C@H]4CN(c5c(F)cc6c(=O)c(C(=O)O)cn(C7CC7)c6c5OC)C[C@H]43)nn2)c2ccc(Br)cc21 | 0.1 (≈ 0.131 µM)
7 | CO/N=C1/C(=O)N(CCn2cc(CN3CCC[C@H]4CN(c5c(F)cc6c(=O)c(C(=O)O)cn(C7CC7)c6c5OC)C[C@H]43)nn2)c2ccccc21 | 0.1 (≈ 0.146 µM)
8 | CO/N=C1/C(=O)N(CCCN2CCN(c3c(F)cc4c(=O)c(C(=O)O)cn(C5CC5)c4c3OC)CC2C)c2ccc(F)cc21 (stereo not given) | 0.25 (≈ 0.41 µM)

test system: Human immunodeficiency virus 1; assay: Antiviral activity against HIV1 3B infected in human MT4 cells; type: functional, organism-based; settings: not given

Row | Compound | Activity [%]
9 | COc1c(N2CCN(CN3C(=O)/C(=N\c4ccc(S(=O)(=O)Nc5nc(C)cc(C)n5)cc4)c4cc(F)ccc43)C(C)C2)c(F)cc2c(=O)c(C(=O)O)cn(C3CC3)c12 (stereo not given) | 106

same assay, conditions: Human immunodeficiency virus 1, 3B, MT4

Row | Compound | EC50 [µg/mL]
10 | COc1c(N2CCN(CN3C(=O)/C(=N\c4ccc(S(=O)(=O)Nc5nc(C)cc(C)n5)cc4)c4cc(F)ccc43)C(C)C2)c(F)cc2c(=O)c(C(=O)O)cn(C3CC3)c12 (stereo not given) | 12.1 (≈ 14.9 µM)

test system: Salmonella typhi; assay: Antibacterial activity against Salmonella typhi by agar dilution method; type: functional, Salmonella enterica subsp. enterica serovar Typhi; settings: Salmonella enterica

Row | Compound | MIC [µg/mL]
11 | CCn1cc(C(=O)O)c(=O)c2cc(F)c(N3CCNC(C)C3)c(F)c21 (stereo not given) [LOMEFLOXACIN] | 0.1 to 2.5 (≈ 0.285 to 7.12 µM)

test system: Mycobacterium tuberculosis; assay: Potency index, ratio of isoniazid MIC to test compound MIC for Mycobacterium tuberculosis H37Rv; type: functional; settings: not given

Row | Compound | Ratio
12 | CO/N=C1/C(=O)N(CCn2cc(CN3CCC[C@H]4CN(c5c(F)cc6c(=O)c(C(=O)O)cn(C7CC7)c6c5OC)C[C@H]43)nn2)c2ccccc21 | >1024

test system: HeLa; assay: Anticancer activity against human HeLa cells after 48 hrs by MTT assay; type: functional, cell-based; settings: not given

Row | Compound | IC50 [µg/mL]
13 | COc1cc(Cc2cnc(/N=C3\C(=O)N(CN4C(C)CN(c5c(F)c(N)c6c(=O)c(C(=O)O)cn(C7CC7)c6c5F)CC4C)c4ccccc43)nc2N)cc(OC)c1OC (stereo not given) | 18.3 to 50 (≈ 22.2 to 60.7 µM)
14 | COc1ncnc(NS(=O)(=O)c2ccc(/N=C3\C(=O)N(CN4C(C)CN(c5c(F)c(N)c6c(=O)c(C(=O)O)cn(C7CC7)c6c5F)CC4C)c4ccccc43)cc2)c1OC (stereo not given) | 18.3 to 33.6 (≈ 21.7 to 39.8 µM)
15 | CC1CN(c2c(F)c(N)c3c(=O)c(C(=O)O)cn(C4CC4)c3c2F)CC(C)N1CN1C(=O)C(=O)c2ccccc21 (stereo not given) | 18.3 to 50 (≈ 33.2 to 90.7 µM)
16 | Cc1cc(C)nc(NS(=O)(=O)c2ccc(/N=C3\C(=O)N(CN4C(C)CN(c5c(F)c(N)c6c(=O)c(C(=O)O)cn(C7CC7)c6c5F)CC4C)c4ccccc43)cc2)n1 (stereo not given) | 18.3 to 50 (≈ 22.6 to 61.6 µM)
17 | CC1CN(c2c(F)c(N)c3c(=O)c(C(=O)O)cn(C4CC4)c3c2F)CC(C)N1CN1C(=O)/C(=N\c2ccc(S(=O)(=O)Nc3ncccn3)cc2)c2ccccc21 (stereo not given) | 18.3 to 50 (≈ 23.4 to 63.8 µM)

test system: Mycobacterium tuberculosis; assay: Antimycobacterial activity against Mycobacterium tuberculosis H37Rv; type: functional; settings: not given

Row | Compound | MIC [µg/mL]
18 | COc1c(N2CCN(CN3C(=O)/C(=N\c4ccc(S(=O)(=O)Nc5nc(C)cc(C)n5)cc4)c4cc(F)ccc43)C(C)C2)c(F)cc2c(=O)c(C(=O)O)cn(C3CC3)c12 (stereo not given) | 1.22 (≈ 1.5 µM)

test system: Mycobacterium tuberculosis; assay: Potency index, ratio of gatifloxacin MIC to test compound MIC for Mycobacterium tuberculosis H37Rv; type: functional; settings: not given

Row | Compound | Ratio
19 | CO/N=C1/C(=O)N(CCCN2CCN(c3c(F)cc4c(=O)c(C(=O)O)cn(C5CC5)c4c3OC)CC2C)c2ccc(F)cc21 (stereo not given) | 2

test system: Escherichia coli; assay: Antibacterial activity against Escherichia coli by agar dilution method; type: functional; settings: not given

Row | Compound | MIC [µg/mL]
20 | CCn1cc(C(=O)O)c(=O)c2cc(F)c(N3CCNC(C)C3)c(F)c21 (stereo not given) [LOMEFLOXACIN] | 0.1 to 2.5 (≈ 0.285 to 7.12 µM)

test system: Mycobacterium tuberculosis; assay: Potency index, ratio of rifampicin MIC to test compound MIC for Mycobacterium tuberculosis H37Rv; type: functional; settings: not given

Row | Compound | Ratio
21 | CO/N=C1/C(=O)N(CCn2cc(CN3CCC[C@H]4CN(c5c(F)cc6c(=O)c(C(=O)O)cn(C7CC7)c6c5OC)C[C@H]43)nn2)c2ccc(Br)cc21 | 4
22 | CO/N=C1/C(=O)N(CCn2cc(CN3CCC[C@H]4CN(c5c(F)cc6c(=O)c(C(=O)O)cn(C7CC7)c6c5OC)C[C@H]43)nn2)c2ccccc21 | 256
23 | CO/N=C1/C(=O)N(CCCN2CCN(c3c(F)cc4c(=O)c(C(=O)O)cn(C5CC5)c4c3OC)CC2C)c2ccc(F)cc21 (stereo not given) | 2

test system: Klebsiella pneumoniae; assay: Antibacterial activity against Klebsiella pneumoniae by agar dilution method; type: functional; settings: not given

Row | Compound | MIC [µg/mL]
24 | CCn1cc(C(=O)O)c(=O)c2cc(F)c(N3CCNC(C)C3)c(F)c21 (stereo not given) [LOMEFLOXACIN] | 0.1 to 2.5 (≈ 0.285 to 7.12 µM)

test system: Staphylococcus aureus; assay: Antibacterial activity against Staphylococcus aureus by agar dilution method; type: functional; settings: not given

Row | Compound | MIC [µg/mL]
25 | CCn1cc(C(=O)O)c(=O)c2cc(F)c(N3CCNC(C)C3)c(F)c21 (stereo not given) [LOMEFLOXACIN] | 0.1 to 2.5 (≈ 0.285 to 7.12 µM)

test system: Shigella flexneri; assay: Antibacterial activity against Shigella flexneri by agar dilution method; type: functional; settings: not given

Row | Compound | MIC [µg/mL]
26 | CCn1cc(C(=O)O)c(=O)c2cc(F)c(N3CCNC(C)C3)c(F)c21 (stereo not given) [LOMEFLOXACIN] | 0.1 to 2.5 (≈ 0.285 to 7.12 µM)

test system: Vibrio cholerae; assay: Antibacterial activity against Vibrio cholerae by agar dilution method; type: functional; settings: not given

Row | Compound | MIC [µg/mL]
27 | CCn1cc(C(=O)O)c(=O)c2cc(F)c(N3CCNC(C)C3)c(F)c21 (stereo not given) [LOMEFLOXACIN] | 0.1 to 2.5 (≈ 0.285 to 7.12 µM)

test system: HepG2; assay: Anticancer activity against human HepG2 cells after 48 hrs by MTT assay; type: functional, cell-based; settings: HepG2, 48 h

Row | Compound | IC50 [µg/mL]
28 | COc1cc(Cc2cnc(/N=C3\C(=O)N(CN4C(C)CN(c5c(F)c(N)c6c(=O)c(C(=O)O)cn(C7CC7)c6c5F)CC4C)c4ccccc43)nc2N)cc(OC)c1OC (stereo not given) | 18.3 to 50 (≈ 22.2 to 60.7 µM)
29 | COc1ncnc(NS(=O)(=O)c2ccc(/N=C3\C(=O)N(CN4C(C)CN(c5c(F)c(N)c6c(=O)c(C(=O)O)cn(C7CC7)c6c5F)CC4C)c4ccccc43)cc2)c1OC (stereo not given) | 18.3 to 33.6 (≈ 21.7 to 39.8 µM)
30 | CC1CN(c2c(F)c(N)c3c(=O)c(C(=O)O)cn(C4CC4)c3c2F)CC(C)N1CN1C(=O)C(=O)c2ccccc21 (stereo not given) | 18.3 to 50 (≈ 33.2 to 90.7 µM)
31 | Cc1cc(C)nc(NS(=O)(=O)c2ccc(/N=C3\C(=O)N(CN4C(C)CN(c5c(F)c(N)c6c(=O)c(C(=O)O)cn(C7CC7)c6c5F)CC4C)c4ccccc43)cc2)n1 (stereo not given) | 18.3 to 50 (≈ 22.6 to 61.6 µM)
32 | CC1CN(c2c(F)c(N)c3c(=O)c(C(=O)O)cn(C4CC4)c3c2F)CC(C)N1CN1C(=O)/C(=N\c2ccc(S(=O)(=O)Nc3ncccn3)cc2)c2ccccc21 (stereo not given) | 18.3 to 50 (≈ 23.4 to 63.8 µM)

test system: SW480; assay: Anticancer activity against human SW480 cells after 48 hrs by MTT assay; type: functional, cell-based; settings: SW480, 48 h

Row | Compound | IC50 [µg/mL]
33 | COc1cc(Cc2cnc(/N=C3\C(=O)N(CN4C(C)CN(c5c(F)c(N)c6c(=O)c(C(=O)O)cn(C7CC7)c6c5F)CC4C)c4ccccc43)nc2N)cc(OC)c1OC (stereo not given) | 18.3 to 50 (≈ 22.2 to 60.7 µM)
34 | COc1ncnc(NS(=O)(=O)c2ccc(/N=C3\C(=O)N(CN4C(C)CN(c5c(F)c(N)c6c(=O)c(C(=O)O)cn(C7CC7)c6c5F)CC4C)c4ccccc43)cc2)c1OC (stereo not given) | 18.3 to 33.6 (≈ 21.7 to 39.8 µM)
35 | CC1CN(c2c(F)c(N)c3c(=O)c(C(=O)O)cn(C4CC4)c3c2F)CC(C)N1CN1C(=O)C(=O)c2ccccc21 (stereo not given) | 18.3 to 50 (≈ 33.2 to 90.7 µM)
36 | Cc1cc(C)nc(NS(=O)(=O)c2ccc(/N=C3\C(=O)N(CN4C(C)CN(c5c(F)c(N)c6c(=O)c(C(=O)O)cn(C7CC7)c6c5F)CC4C)c4ccccc43)cc2)n1 (stereo not given) | 18.3 to 50 (≈ 22.6 to 61.6 µM)
37 | CC1CN(c2c(F)c(N)c3c(=O)c(C(=O)O)cn(C4CC4)c3c2F)CC(C)N1CN1C(=O)/C(=N\c2ccc(S(=O)(=O)Nc3ncccn3)cc2)c2ccccc21 (stereo not given) | 18.3 to 50 (≈ 23.4 to 63.8 µM)

test system: Pseudomonas aeruginosa; assay: Antibacterial activity against Pseudomonas aeruginosa by agar dilution method; type: functional; settings: not given

Row | Compound | MIC [µg/mL]
38 | CCn1cc(C(=O)O)c(=O)c2cc(F)c(N3CCNC(C)C3)c(F)c21 (stereo not given) [LOMEFLOXACIN] | 0.1 to 2.5 (≈ 0.285 to 7.12 µM)

test system: Citrobacter freundii; assay: Antibacterial activity against Citrobacter freundii by agar dilution method; type: functional; settings: not given

Row | Compound | MIC [µg/mL]
39 | CCn1cc(C(=O)O)c(=O)c2cc(F)c(N3CCNC(C)C3)c(F)c21 (stereo not given) [LOMEFLOXACIN] | 0.1 to 2.5 (≈ 0.285 to 7.12 µM)

test system: Staphylococcus epidermidis; assay: Antibacterial activity against Staphylococcus epidermidis by agar dilution method; type: functional; settings: not given

Row | Compound | MIC [µg/mL]
40 | CCn1cc(C(=O)O)c(=O)c2cc(F)c(N3CCNC(C)C3)c(F)c21 (stereo not given) [LOMEFLOXACIN] | 0.1 to 2.5 (≈ 0.285 to 7.12 µM)
